Measured values as given in ChEMBL document CHEMBL1150984, “2,4,5- triarylimidazole inhibitors of IL-1 biosynthesis” (Bioorg Med Chem Lett, 1995).

Target: T1, Polyunsaturated fatty acid 5-lipoxygenase (Rattus norvegicus, UniProt P12527)
T1 sequence (P12527 whole entry): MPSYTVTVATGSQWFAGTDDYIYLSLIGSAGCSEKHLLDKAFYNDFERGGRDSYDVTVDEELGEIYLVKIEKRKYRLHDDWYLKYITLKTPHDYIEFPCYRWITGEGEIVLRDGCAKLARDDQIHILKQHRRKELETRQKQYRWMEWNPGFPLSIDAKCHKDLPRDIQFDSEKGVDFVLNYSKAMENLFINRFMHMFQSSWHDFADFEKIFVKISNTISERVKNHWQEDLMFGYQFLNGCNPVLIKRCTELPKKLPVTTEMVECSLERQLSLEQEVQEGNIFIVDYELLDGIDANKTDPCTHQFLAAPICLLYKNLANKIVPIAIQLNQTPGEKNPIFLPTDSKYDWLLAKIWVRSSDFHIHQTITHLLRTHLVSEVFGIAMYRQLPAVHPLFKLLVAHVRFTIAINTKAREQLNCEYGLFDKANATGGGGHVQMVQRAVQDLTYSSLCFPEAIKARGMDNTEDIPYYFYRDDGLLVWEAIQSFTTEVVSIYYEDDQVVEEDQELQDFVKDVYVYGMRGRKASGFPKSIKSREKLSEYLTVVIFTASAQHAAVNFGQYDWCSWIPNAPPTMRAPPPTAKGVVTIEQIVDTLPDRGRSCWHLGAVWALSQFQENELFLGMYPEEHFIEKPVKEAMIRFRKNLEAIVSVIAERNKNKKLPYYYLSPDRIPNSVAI
Assay: biochemical
Assay type: cell-based, RBL-1
Description: Inhibitory activity against 5-lipoxygenase enzyme from RBL-1 cells

Row | IC50 [µM] | Compound
1 | 5.6 | CN(C)c1ccc(-c2nc(-c3ccc(F)cc3)c(-c3ccncc3)[nH]2)cc1
2 | 7.2 | C[S+]([O-])c1ccc(-c2nc(-c3ccc(F)cc3)c(-c3ccnc4ccccc34)[nH]2)cc1 (stereo unspecified)
3 | 4.1 | Oc1ccccc1-c1nc(-c2ccc(F)cc2)c(-c2ccncc2)[nH]1
4 | 7.2 | CC1(C)NC(c2ccc(-c3nc(-c4ccc(F)cc4)c(-c4ccncc4)[nH]3)cc2)=NO1
5 | 0.8 | CN(Cc1ccccc1)Cc1ccc(-c2nc(-c3ccncc3)c(-c3ccc(F)cc3)[nH]2)cc1
6 | 3.8 | N#CN=C(N)Cc1ccc(-c2nc(-c3ccncc3)c(-c3ccc(F)cc3)[nH]2)cc1
